Assay results reported in patent US12385839B2, “Use of protein in predicting drug properties” (priority 2021, dated 2025).
Read-outs that look alike come from different tables or passages of the source.

Assays:
[1] = target: T1, human serum albumin (HSA) (Homo sapiens, UniProt P02768); experiment: Fluorescence emission spectrum (quenching) of HSA with carbamate pesticides; assay type: binding; details: for R (binding distance): Förster energy transfer; for fluorescence of HSA quenched by pesticide: titration of pesticide; for ΔH^0 / ΔS^0: Van't Hoff, 296-310 K
Experimental: the mixed solution to be tested was preheated at […] for 3 minutes, and the emission spectrum of HSA with carbamate pesticides was measured at 300-500 nm . The excitation wavelength was set at 280 nm , and the slit width for both excitation and emission was 15 nm; the HSA concentration was kept constant at 5×10^−7 M, and the pesticide concentration was (0-105)×10^−7 M.
The internal filtering effect of fluorescence signal was corrected according to the following formula: Fcor=Fobsexp[(Aex+Aem)/2] (1);
in this formula, Fcor and Fobs represent corrected fluorescence signal and observed fluorescence signal, respectively, and Aex and Aem represent absorbance of the mixed solution to be tested at excitation wavelength and emission wavelengths, respectively; the quenching constant, number of binding sites, binding constant, free energy and binding distance of different drugs were obtained by fluorescence emission spectra, and a BP neural network model was obtained. Specifically, they were obtained as follows:
There is a linear relationship between F0/F and [Q] to distinguish whether it is static quenching or dynamic quenching. The fluorescence quenching data are analyzed by Stern-Volmer equation to clarify the quenching mechanism: F0/F=1+KSV[Q]=1+Kqτ0[Q] (2);
in the formula, F0 and F are fluorescence signals […] quencher, respectively. Ksv is Stern-Volmer quenching constant; Kq is a quenching rate constant of biomolecules; τ0 is the average lifetime of biomolecules without quencher (about 10^−8 s); [Q] is the concentration of quencher.
The maximum dynamic quenching rate constant of all kinds of quenchers on polymers was 2.0×10^10 L·mol^−1·s^−1. Static quenching and dynamic quenching could be judged according to this value. If K^q was greater than 2.0×10^10 L·mol^−1·s^−1, it belonged to static quenching. Otherwise, it belonged to dynamic quenching.
In this part, the binding sites and binding constants between carbamate pesticides and HSA were calculated. The following formula was used to calculate the number of binding sites (n) and the binding constant (Ka) of carbamate pesticides and HSA: log[(F0−F)/F]=log Ka+nlog[Q] (3);
The interactions between biological molecules and drug molecules were weak intermolecular interactions, including hydrogen bonds, van der Waals forces, electrostatic forces and hydrophobic interactions. By using Van't Hoff equation, the thermodynamic constants of drug-protein interaction were obtained, and the main types of drug-protein interaction were judged according to the changes of binding constants under different conditions. LnK=−ΔH^0/RT+ΔS^0/R (4); ΔG^0=ΔH^0−TΔS^0 (5);
There is a relationship among energy transfer efficiency E, distance r between energy donor and energy receptor and energy transfer distance R0. E=1−F/F0=R0^6/(R0^6+r^6) (6);
E represents the transfer efficiency between donor and receptor, r is the average distance between donor and receptor, and R0 is the critical distance when the transfer efficiency is 50%. R0^6=8.79×10^−K^2N^−4φJ (7)
K^2 is the orientation related to the geometry of donor and receptor of dipole. For random orientation in fluid, K^2=2/3; N is the average refractive index of the medium in the wavelength range with obvious spectral overlap, and the refractive index of water and organic matter is 1.336; φ is the quantum yield of donor, and the quantum yield of tryptophan in HSA is about 0.118; J represents the influence of spectral overlap between the emission spectrum of the donor and the absorption spectrum of the receptor, and can be calculated by the following formula: j=ΣF(λ)ϵ(λ)λ^4Δλ/ΣF(λ) Δλ (8);
F(λ) is the corrected fluorescence signal of the donor in the wavelength range from λ to (λ+Δλ), while ϵ(λ) is the extinction coefficient of the receptor at λ.

[2] = cited from earlier work; for LD50: modelling table; for Toxicity: toxicity grade by LD50, trailing figure = number of pesticides in group
[3] = target: T1, human serum albumin (HSA); experiment: Circular dichroism spectrum, secondary structure (α-helix content) of HSA; details: HSA 2×10^−6 M
Experimental: the mixed solution to be tested was preheated at […] for 2-5 minutes, and the CD spectrum of HSA was recorded in the wavelength range of 200-500 nm . The concentration of HSA was kept at 2×10^−6 M, and the pesticide was (0-20)×10^−6 m. Firstly, HSA was measured, and then the ratio of HSA to pesticides needed to be determined specifically, which was preliminarily determined according to the ratio of 1:1, 1:2 and 1:3.
According to the following equation, the result of CD spectrum was usually expressed as the mean residue ellipticity (MRE), and the unit was deg·cm^2·dmol^−1. MRE=ObservedCD(mdeg)/(10Cpnl) (9);
in which Cp is the molar concentration of protein, n is the number (585) of amino acid residues, and 1 is the path length (1 mm). The α helicity of free and bound HSA is calculated from MRE values using the following formula: α−Helix(%)=[(−MRE208−4000)×100]/(33000-4000) (10)
in which the MRE208 is the MRE value observed at 208 nm , 4000 is the MRE value of random coil conformation at 208 nm , and […] is the MRE value of pure α helix at 208 nm .

[4] = 37°, modelling table, read-out: Ka (37°) (converted)
[5] = 296 K, test-set pesticides (Table 4)
[6] = 303 K, test-set pesticides (Table 4)
[7] = 310 K, test-set pesticides (Table 4)
[8] = 296 K, pH 7.4, read-out: Ka (binding constant)
[9] = 303 K, pH 7.4, read-out: Ka (binding constant)
[10] = 310 K, pH 7.4, read-out: Ka (binding constant)

T1 sequence (P02768 25-609): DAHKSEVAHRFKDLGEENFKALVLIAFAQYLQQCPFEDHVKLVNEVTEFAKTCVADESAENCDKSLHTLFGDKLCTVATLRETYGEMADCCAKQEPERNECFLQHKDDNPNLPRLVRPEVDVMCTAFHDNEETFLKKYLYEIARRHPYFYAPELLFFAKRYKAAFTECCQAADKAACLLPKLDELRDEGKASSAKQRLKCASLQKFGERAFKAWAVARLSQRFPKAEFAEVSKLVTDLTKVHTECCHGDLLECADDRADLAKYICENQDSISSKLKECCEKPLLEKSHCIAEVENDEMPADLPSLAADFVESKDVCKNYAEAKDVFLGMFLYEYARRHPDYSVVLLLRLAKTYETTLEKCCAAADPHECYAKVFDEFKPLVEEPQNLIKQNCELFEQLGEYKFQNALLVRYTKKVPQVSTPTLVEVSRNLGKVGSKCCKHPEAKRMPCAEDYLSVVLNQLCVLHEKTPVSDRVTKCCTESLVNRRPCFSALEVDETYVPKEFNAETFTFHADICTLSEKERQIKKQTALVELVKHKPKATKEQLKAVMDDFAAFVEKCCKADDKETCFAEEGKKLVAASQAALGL

SMILES | Ksv (37°) ([1]; 37°, modelling table) | ΔG(37°) ([1]; 37°, modelling table) | n ([1]; 296 K (Table 4)) | ΔG^0 ([1]; 296 K (Table 4)) [kcal/mol] | Ksv [1, 5] | n ([1]; 303 K (Table 4)) | ΔG^0 ([1]; 303 K (Table 4)) [kcal/mol] | Ksv [1, 6] | n ([1]; 310 K (Table 4)) | r ([1]; 310 K (Table 4)) | ΔG^0 ([1]; 310 K (Table 4)) [kcal/mol] | Ksv [1, 7] | Binding distance/r ([1]; modelling table) | Number of binding sites/n ([1]; modelling table) | LD50 [2] [mg/kg] | Toxicity [2] | ΔG^0 ([1]; 296 K) [kcal/mol] | Kq ([1]; 296 K, pH 7.4) | Ksv ([1]; 296 K, pH 7.4) | n (number of binding sites) ([1]; 296 K, pH 7.4) | other results
CNC(=O)O/N=C/C(C)(C)SC [Aldicarb, aldicarb] | 72295.50723 | −24.42 | 0.823 ± 0.002 | -5.321 | 6.498 ± 0.153 10^4 M−1 | 0.837 ± 0.002 | -5.5786 | 6.999 ± 0.079 10^4 M−1 | 0.851 ± 0.002 | 2.623 | -5.8363 | 7.230 ± 0.167 10^4 M−1 | 2.623 | 0.8508 | 0.5 | Highly | – | – | – | – | Kd [1, 4]: 77.3 µM; Kd ([1]; 296 K (Table 4), read-out: Ka): 119 µM; Kd ([1]; 303 K (Table 4), read-out: Ka): 93.5 µM; Actual LD50 ([2]; Table 5): 0.5 mg/kg; Actual LD50 ([2]; Table 6): 0.5 mg/kg
CNC(=O)O/N=C/C(C)(C)S(C)(=O)=O [Aldicarb-sulfone, aldicarb sulfone] | 39842.68547 | −17.29 | 0.582 ± 0.008 | -3.2622 | 2.797 ± 0.157 10^4 M−1 | 0.624 ± 0.003 | -3.6977 | 3.379 ± 0.129 10^4 M−1 | 0.654 ± 0.010 | 2.376 | -4.1334 | 3.984 ± 0.197 10^4 M−1 | – | 0.6544 | – | – | – | – | – | – | Kd ([1]; Ka (37°), 37°, modelling table): 1210 µM; Kd ([1]; Ka, 296 K (Table 4)): 3860 µM; Kd ([1]; Ka, 303 K (Table 4)): 2200 µM
CNC(=O)Oc1ccc(N(C)C)c(C)c1 [Aminocarb, aminocarb] | 39050.24214 | −18.36 | – | – | – | – | – | – | – | – | – | – | 2.215 | 0.6985 | 30 | Highly | -3.7173 | 3.151 ± 0.089 10^12 M^−1s^−1 | 3.151 ± 0.089 10^4 M^−1 | 0.649 ± 0.005 | Kd [1, 4]: 786 µM; Kd [1, 8]: 1760 µM; ΔG^0 ([1]; 303 K): -4.0531 kcal/mol; Kq ([1]; 303 K, pH 7.4): 3.409 ± 0.059 10^12 M^−1s^−1; Ksv ([1]; 303 K, pH 7.4): 3.409 ± 0.059 10^4 M^−1; n (number of binding sites) ([1]; 303 K, pH 7.4): 0.669 ± 0.006; Kd [1, 9]: 1250 µM; ΔG^0 ([1]; 310 K): -4.3891 kcal/mol; R (binding distance) ([1]; 310 K): 2.215 nm; Kq ([1]; 310 K, pH 7.4): 3.905 ± 0.179 10^12 M^−1s^−1; Ksv ([1]; 310 K, pH 7.4): 3.905 ± 0.179 10^4 M^−1; n (number of binding sites) ([1]; 310 K, pH 7.4): 0.699 ± 0.003; Kd [1, 10]: 786 µM; fluorescence of HSA quenched by pesticide ([1]; 310 K): quenched; ΔH^0 [1]: 10.487 kcal/mol; ΔS^0 [1]: 200.780 J · mol^−1 · K^−1; α-helix contents ([3]; 5:1 (Pesticide:HSA)): 49.862%; α-helix contents ([3]; 10:1 (Pesticide:HSA)): 49.082%
CNC(=O)O/N=C(\C)C(C)S(C)(=O)=O (stereo not shown) [Butoxycarboxim, butoxycarboxim] | 62644.83638 | −20.24 | – | – | – | – | – | – | – | – | – | – | 1.964 | 0.725 | 458 | Moderately | -3.7366 | 2.888 ± 0.064 10^12 M^−1s^−1 | 2.888 ± 0.064 10^4 M^−1 | 0.658 ± 0.002 | Kd [1, 8]: 1720 µM; ΔG^0 ([1]; 303 K): -4.2875 kcal/mol; Kq ([1]; 303 K, pH 7.4): 4.798 ± 0.112 10^12 M^−1s^−1; Ksv ([1]; 303 K, pH 7.4): 4.798 ± 0.112 10^4 M^−1; n (number of binding sites) ([1]; 303 K, pH 7.4): 0.679 ± 0.002; Kd [1, 9]: 832 µM; ΔG^0 ([1]; 310 K): -4.8384 kcal/mol; R (binding distance) ([1]; 310 K): 1.964 nm; Kq ([1]; 310 K, pH 7.4): 6.264 ± 0.074 10^12 M^−1s^−1; Ksv ([1]; 310 K, pH 7.4): 6.264 ± 0.074 10^4 M^−1; n (number of binding sites) ([1]; 310 K, pH 7.4): 0.725 ± 0.001; Kd [1, 10]: 382 µM; fluorescence of HSA quenched by pesticide ([1]; 310 K): quenched; ΔH^0 [1]: 19.556 kcal/mol; ΔS^0 [1]: 329.251 J · mol^−1 · K^−1; α-helix contents ([3]; 5:1 (Pesticide:HSA)): 53.753%; α-helix contents ([3]; 10:1 (Pesticide:HSA)): 52.790%
CCC(C)c1ccccc1OC(=O)NC (stereo not shown) [Fenobucarb, fenobucarb] | 50302.85806 | −15.31 | 0.535 ± 0.006 | -3.0858 | 3.803 ± 0.107 10^4 M−1 | 0.559 ± 0.004 | -3.3726 | 4.110 ± 0.183 10^4 M−1 | 0.567 ± 0.008 | 2.791 | -3.6597 | 5.030 ± 0.145 10^4 M−1 | 2.791 | 0.5672 | 350 | Moderately | – | – | – | – | Kd ([1]; Ka (37°), 37°, modelling table): 2640 µM; Kd ([1]; Ka, 296 K (Table 4)): 5280 µM; Kd ([1]; Ka, 303 K (Table 4)): 3670 µM; Actual LD50 ([2]; Table 5): 350 mg/kg; Actual LD50 ([2]; Table 6): 350 mg/kg
CNC(=O)O/N=C(\C[S+](C)[O-])C(C)(C)C (stereo not shown) [Thiofanox-sulfoxide] | – | – | – | – | – | – | – | – | – | – | – | – | – | – | – | – | -4.1427 | 3.284 ± 0.040 10^12 M^−1s^−1 | 3.284 ± 0.040 10^4 M^−1 | 0.707 ± 0.009 | Ka (binding constant) ([1]; 296 K, pH 7.4): (1.127 ± 0.100) × 10^3 M^−1; ΔG^0 ([1]; 303 K): -4.5277 kcal/mol; Ka (binding constant) ([1]; 303 K, pH 7.4): (1.906 ± 0.103) × 10^3 M^−1; Kq ([1]; 303 K, pH 7.4): 4.237 ± 0.067 10^12 M^−1s^−1; Ksv ([1]; 303 K, pH 7.4): 4.237 ± 0.067 10^4 M^−1; n (number of binding sites) ([1]; 303 K, pH 7.4): 0.726 ± 0.005; ΔG^0 ([1]; 310 K): -4.913 kcal/mol; R (binding distance) ([1]; 310 K): 1.702 nm; Ka (binding constant) ([1]; 310 K, pH 7.4): (2.861 ± 0.176) × 10^3 M^−1; Kq ([1]; 310 K, pH 7.4): 5.339 ± 0.093 10^12 M^−1s^−1; Ksv ([1]; 310 K, pH 7.4): 5.339 ± 0.093 10^4 M^−1; n (number of binding sites) ([1]; 310 K, pH 7.4): 0.746 ± 0.006; ΔH^0 [1]: 12.144 kcal/mol; ΔS^0 [1]: 230.219 J · mol^−1 · K^−1; α-helix contents ([3]; 5:1 (Pesticide:HSA)): 50.523%; α-helix contents ([3]; 10:1 (Pesticide:HSA)): 48.338%
